Assays:
RVH-421 (Melanoma) [1] = assay: combination Emax (second highest fraction inhibited in the dose matrix, 72 h); higher = more inhibition; extreme values may be limits of the assay
Outline: (§1)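 Bliss excess equals the observed combination effect minus the expected value EA + EB − EA·EB, where EA and EB are the effects of each agent alone. Combination Emax is the second-highest inhibition within the matrix. Inhibition was scaled from CellTiter-Glo 2.0 luminescence, with 0 set by vehicle wells and 1 by blank wells, after 72 hours of two-drug dosing of cells plated in 1536-well plates.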

[2] = system: RPMI-8402 (T-Lymphoblastic Leukemia); assay: Bliss excess, mean over the matrix (fraction); higher = more synergy
Outline: as §1

[3] = system: NCI-H1944 (Lung Adenocarcinoma); assay: as above
Outline: as §1

[4] = system: Daudi (Burkitt's Lymphoma); assay: as above
Outline: as §1

GCIY (Gastric Carcinoma) = assay: as above
Outline: as §1

[5] = system: OVKATE (Ovarian Carcinoma); assay: as above
Outline: as §1

[6] = system: NCI-H835 (Other Solid Carcinomas); assay: as above
Outline: as §1

RVH-421 (Melanoma) [7] = assay: as above
Outline: as §1

[8] = system: SNU-1 (Gastric Carcinoma); assay: as above
Outline: as §1

[9] = system: ATN-1 (T-Lymphoblastic Leukemia); assay: as above
Outline: as §1

[10] = system: NCI-H1975 (Lung Adenocarcinoma); assay: as above
Outline: as §1

[11] = system: GRANTA-519 (B-Cell Non-Hodgkin's Lymphoma); assay: as above
Outline: as §1

[12] = system: MRK-nu-1 (Breast Carcinoma); assay: as above
Outline: as §1

[13] = system: NCI-H1435 (Non-Small Cell Lung Carcinoma); assay: as above
Outline: as §1

[14] = system: NCI-H1048 (Small Cell Lung Carcinoma); assay: as above
Outline: as §1

[15] = system: NTERA-2-cl-D1 (Other Solid Carcinomas); assay: as above
Outline: as §1

[16] = system: SBC-3 (Small Cell Lung Carcinoma); assay: as above
Outline: as §1

[17] = system: JURL-MK1 (Chronic Myelogenous Leukemia); assay: as above
Outline: as §1

| SMILES | combination Emax (RVH-421 (Melanoma) [1]) | Bliss excess [2] | Bliss excess [3] | Bliss excess [4] | Bliss excess (GCIY (Gastric Carcinoma)) | Bliss excess [5] | Bliss excess [6] | Bliss excess (RVH-421 (Melanoma) [7]) | Bliss excess [8] | Bliss excess [9] | Bliss excess [10] | Bliss excess [11] | Bliss excess [12] | Bliss excess [13] | Bliss excess [14] | Bliss excess [15] | Bliss excess [16] | Bliss excess [17] |
| --- | --- | --- | --- | --- | --- | --- | --- | --- | --- | --- | --- | --- | --- | --- | --- | --- | --- | --- |
| COc1cccc2c1C(=O)c1c(O)c3c(c(O)c1C2=O)C[C@@](O)(C(=O)CO)C[C@@H]3O[C@H]1C[C@H](N)[C@H](O)[C@H](C)O1 [Doxorubicin] + Cc1cc2ncnn2cc1Nc1ncc2c(n1)n(C1CCOCC1)c(=O)n2C [AZD7648] (first compound max 1 µM, 7x7, partner max 10 µM) | 0.404 | 0.0782 | 0.0739 | 0.0985 | 0.0606 | -0.0594 | 0.0207 | 0.0105 | 0.0667 | 0.0967 | 0.0542 | 0.102 | 0.0157 | 0.0002 | 0.0539 | 0.0426 | 0.0553 | 0.0792 |
| COc1cccc(OCCCN)c1-c1cc(Nc2cnc(C#N)cn2)n[nH]1 [Prexasertib] + C=CCn1c(=O)c2cnc(Nc3ccc(N4CCN(C)CC4)cc3)nc2n1-c1cccc(C(C)(C)O)n1 [AZD1775] (first compound max 1 µM, partner max 1 µM) | 0.341 | 0.0389 | 0.077 | 0.0677 | 0.0355 | -0.0665 | 0.105 | -0.0524 | 0.084 | 0.0134 | 0.0404 | -0.0138 | 0.211 | 0.0718 | 0.101 | 0.19 | 0.146 | 0.0271 |
| COc1cccc(OCCCN)c1-c1cc(Nc2cnc(C#N)cn2)n[nH]1 [Prexasertib] + CCc1c2c(nc3ccc(O)cc13)-c1cc3c(c(=O)n1C2)COC(=O)[C@]3(O)CC [SN-38] (first compound max 1 µM, 7x7, partner max 0.3 µM) | 0.363 | -0.0152 | -0.006 | -0.0078 | -0.0379 | -0.0292 | -0.0014 | -0.069 | -0.0357 | 0.0005 | 0.108 | 0.0025 | -0.0613 | 0.0171 | 0.0152 | 0.0728 | -0.0766 | -0.0109 |
| COc1cccc(OCCCN)c1-c1cc(Nc2cnc(C#N)cn2)n[nH]1 [Prexasertib] + CN(C)CCCOc1ccc(-c2ccc3ncc4c(c3c2)n(C2CCOCC2)c(=O)n4C)cn1 [AZD0156] (first compound max 1 µM, 7x7, partner max 1 µM) | 0.314 | -0.0172 | 0.0331 | -0.0041 | -0.0072 | -0.069 | 0.0571 | -0.0325 | -0.0201 | 0.0102 | 0.026 | -0.035 | 0.0456 | 0.0385 | -0.0023 | 0.0083 | -0.0046 | 0.0231 |
| COc1cccc(OCCCN)c1-c1cc(Nc2cnc(C#N)cn2)n[nH]1 [Prexasertib] + C[C@@H]1COCCN1C2=NC(=NC(=C2)C3(CC3)[S@](=N)(=O)C)C4=C5C=CNC5=NC=C4 [AZD6738] (first compound max 1 µM, 7x7, partner max 10 µM) | 0.244 | 0.001 | 0.0168 | -0.0295 | 0.0063 | -0.0378 | 0.0548 | -0.0225 | -0.0712 | -0.0207 | 0.0029 | -0.062 | -0.0703 | 0.0676 | -0.0191 | 0.0172 | -0.0201 | 0.0056 |
| COc1cccc(OCCCN)c1-c1cc(Nc2cnc(C#N)cn2)n[nH]1 [Prexasertib] + Cc1cc2ncnn2cc1Nc1ncc2c(n1)n(C1CCOCC1)c(=O)n2C [AZD7648] (first compound max 1 µM, 7x7, partner max 10 µM) | 0.344 | -0.0127 | -0.0028 | 0.0017 | -0.0648 | -0.0853 | -0.0346 | -0.0417 | -0.0198 | 0.0136 | 0.041 | -0.0489 | -0.0258 | 0.0115 | -0.0275 | -0.0688 | -0.0512 | 0.0485 |
| CCc1c2c(nc3ccc(O)cc13)-c1cc3c(c(=O)n1C2)COC(=O)[C@]3(O)CC [SN-38] + O=C(c1cc(Cc2n[nH]c(=O)c3ccccc23)ccc1F)N1CCN(C(=O)C2CC2)CC1 [Olaparib] (first compound max 0.3 µM, 7x7, partner max 10 µM) | 0.265 | 0.0767 | 0.025 | 0.122 | 0.0875 | -0.0113 | 0.017 | -0.0041 | 0.0064 | 0.0907 | 0.0248 |  | 0.0478 | 0.0243 | 0.0934 | 0.0387 | 0.0513 | 0.0401 |
| CC1(C)CCC(CN2CCN(c3ccc(C(=O)NS(=O)(=O)c4ccc(NCC5CCOCC5)c([N+](=O)[O-])c4)c(Oc4cnc5[nH]ccc5c4)c3)CC2)=C(c2ccc(Cl)cc2)C1 [Venetoclax] + C=CCn1c(=O)c2cnc(Nc3ccc(N4CCN(C)CC4)cc3)nc2n1-c1cccc(C(C)(C)O)n1 [AZD1775] (first compound max 1 µM, partner max 1 µM) | 0.183 | -0.0203 | -0.0808 | -0.0267 | 0.111 | -0.0169 |  | -0.0875 | -0.0156 | 0.0707 | -0.0143 | 0.0734 | -0.0341 | -0.0029 | 0.0212 | -0.0202 | 0.043 | -0.0214 |
| CC1(C)CCC(CN2CCN(c3ccc(C(=O)NS(=O)(=O)c4ccc(NCC5CCOCC5)c([N+](=O)[O-])c4)c(Oc4cnc5[nH]ccc5c4)c3)CC2)=C(c2ccc(Cl)cc2)C1 [Venetoclax] + CCN(CCO)CCCOc1ccc2c(Nc3cc(CC(=O)Nc4cccc(F)c4)[nH]n3)ncnc2c1 [AZD2811] (first compound max 1 µM, 7x7, partner max 1 µM) | 0.164 | -0.0241 | -0.0272 | 0.005 | -0.0468 | -0.0661 |  | -0.0636 | 0.0266 | 0.0113 | -0.0555 | 0.234 | 0.0341 | 0.0104 | 0.103 | 0.0826 | 0.0166 | 0.0208 |
| CC1(C)CCC(CN2CCN(c3ccc(C(=O)NS(=O)(=O)c4ccc(NCC5CCOCC5)c([N+](=O)[O-])c4)c(Oc4cnc5[nH]ccc5c4)c3)CC2)=C(c2ccc(Cl)cc2)C1 [Venetoclax] + CN(C)CCCOc1ccc(-c2ccc3ncc4c(c3c2)n(C2CCOCC2)c(=O)n4C)cn1 [AZD0156] (first compound max 1 µM, 7x7, partner max 1 µM) | 0.16 | 0.0022 | -0.0052 | -0.0194 | 0.0131 | -0.0856 |  | -0.0658 | -0.0069 | 0.0437 | -0.0611 | 0.0334 | 0.0046 | -0.0029 | 0.0016 | -0.0372 | -0.0369 | -0.0151 |
| CC1(C)CCC(CN2CCN(c3ccc(C(=O)NS(=O)(=O)c4ccc(NCC5CCOCC5)c([N+](=O)[O-])c4)c(Oc4cnc5[nH]ccc5c4)c3)CC2)=C(c2ccc(Cl)cc2)C1 [Venetoclax] + COc1cc(Nc2ncc3c(n2)-c2ccc(Cl)cc2C(c2c(F)cccc2OC)=NC3)ccc1C(=O)O [Alisertib] (first compound max 1 µM, 7x7, partner max 10 µM) | 0.0752 | -0.0525 | -0.0192 | -0.0718 | 0.0271 | -0.0154 |  | -0.058 | -0.0103 | -0.013 | -0.0453 | 0.438 | 0.129 | -0.0522 | 0.0987 | 0.0304 | 0.0101 | -0.0542 |
| CC1(C)CCC(CN2CCN(c3ccc(C(=O)NS(=O)(=O)c4ccc(NCC5CCOCC5)c([N+](=O)[O-])c4)c(Oc4cnc5[nH]ccc5c4)c3)CC2)=C(c2ccc(Cl)cc2)C1 [Venetoclax] + C[C@@H]1COCCN1C2=NC(=NC(=C2)C3(CC3)[S@](=N)(=O)C)C4=C5C=CNC5=NC=C4 [AZD6738] (first compound max 1 µM, 7x7, partner max 10 µM) | 0.26 | 0.0103 | -0.0023 | -0.0278 | -0.0468 | -0.0291 |  | -0.0286 | -0.0114 | -0.0216 | -0.0391 | 0.0342 | -0.0003 | -0.014 | 0.0276 | -0.0238 | -0.0906 | 0.0005 |
| CC1(C)CCC(CN2CCN(c3ccc(C(=O)NS(=O)(=O)c4ccc(NCC5CCOCC5)c([N+](=O)[O-])c4)c(Oc4cnc5[nH]ccc5c4)c3)CC2)=C(c2ccc(Cl)cc2)C1 [Venetoclax] + C[C@@H](Nc1cc(F)cc(F)c1)c1cc(C(=O)N(C)C)cc2c(=O)cc(N3CCOCC3)oc12 [AZD8186] (first compound max 1 µM, 7x7, partner max 3 µM) | 0.326 | 0.0028 | -0.034 | -0.0238 | -0.0047 | -0.0334 |  | -0.0084 | -0.0157 | 0.0347 | -0.0203 | 0.0281 | -0.0165 | 0.0012 | 0.018 | -0.0199 | -0.034 | -0.0201 |
| CC1(C)CCC(CN2CCN(c3ccc(C(=O)NS(=O)(=O)c4ccc(NCC5CCOCC5)c([N+](=O)[O-])c4)c(Oc4cnc5[nH]ccc5c4)c3)CC2)=C(c2ccc(Cl)cc2)C1 [Venetoclax] + Cc1cc2ncnn2cc1Nc1ncc2c(n1)n(C1CCOCC1)c(=O)n2C [AZD7648] (first compound max 1 µM, 7x7, partner max 10 µM) | 0.221 | 0.0235 | 0.0189 | 0.004 | -0.0232 | -0.113 |  | -0.0443 | -0.0408 | 0.0196 | -0.0114 | 0.0007 | 0.0037 | -0.0088 | 0.0067 | -0.0216 | -0.0729 | -0.0068 |
| CC1(C)CCC(CN2CCN(c3ccc(C(=O)NS(=O)(=O)c4ccc(NCC5CCOCC5)c([N+](=O)[O-])c4)c(Oc4cnc5[nH]ccc5c4)c3)CC2)=C(c2ccc(Cl)cc2)C1 [Venetoclax] + Cn1cnc2c(F)c(Nc3ccc(Br)cc3Cl)c(C(=O)NOCCO)cc21 [Selumetinib] (first compound max 1 µM, 7x7, partner max 3 µM) | 0.385 | -0.031 | -0.0356 | -0.0208 | -0.12 | -0.0584 |  | -0.0317 | -0.0541 | -0.0324 | -0.0631 | -0.03 | -0.0139 | 0.0021 | -0.0067 | -0.0415 | -0.032 | -0.0249 |
